From patent US4206215A, “Antimicrobial bis-[4-(substituted-amino)-1-pyridinium]alkanes” (Sterling Drug Inc., priority 1977, dated 1980)
Where two headings read alike, the source gives them in different places.

Tests used:
E. Coli ATCC 8739 = assay: Effect of serum on bacteriostatic activity (serial tube dilution test); type: cell-based, Escherichia coli; conditions: for MIC: Escherichia coli, ATCC8739
Procedure: (§1) Antibacterial effectiveness in the presence of serum was determined for representative examples by the standard serial tube dilution test wherein paired comparisons of minimum inhibitory concentrations (MIC) were determined in the absence and in the presence of heat inactivated (30 min. at 56° C.) horse serum (40%) in the test medium. The results are expressed as the fold increase in MIC (mcg./ml.) versus Staphyloccocus aureus and Escherichia coli caused by the presence of serum and are presented in Table B hereinbelow.

[1] = tested on: Herpes simplex type 2 virus; assay: Virucidal activity in vitro (plaque inhibition test); type: cell-based; conditions: 2 mg. of test compound on growth medium
Procedure: Virucidal activity of representative examples against Herpes simplex type 2 virus was determined in vitro employing a procedure similar to the plaque inhibition test for detection of specific inhibitors of DNA-containing viruses published by E. C. Herrmann, Jr., Proc. Soc. Exp. Biol. Med. 107, 142 (1961) wherein 2 mg. of the test compound was placed on the surface of the growth medium.

K. pneum. 39645 = assay: In vitro antibacterial activity, MIC (modified Autotiter method); type: cell-based, Klebsiella pneumoniae; conditions: 18-20 hours at 37° C.
Method in brief: (§2)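 Autotiter-based broth dilution, modified from Goss: 1,000 mcg./ml. stock, twofold steps in sterile water, then inoculated 2x semisynthetic medium (glucose) dispensed automatically. Final range 500–0.06 mcg./ml.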

Ps. aerug. MGH-2 = assay: as above; type: cell-based, Pseudomonas aeruginosa; conditions: 18-20 hours at 37° C.
Method in brief: as §2

A. niger 16404 = assay: In vitro antifungal activity, MIC (modified Autotiter method); type: cell-based, Aspergillus niger; conditions: 18-20 hours at 37° C.
Method in brief: as §2

[2] = tested on: Streptococcus mutans OMZ-61; assay: Dental plaque-preventive effectiveness in the presence of sterile human saliva (50%); type: cell-based; conditions: 50% sterile human saliva
Procedure: The dental plaque preventive activity of certain of the compounds of the present invention was determined by measuring the ability of these compounds to inhibit the production of dental plaque by Streptococcus mutans OMZ-61 as follows:
A culture medium for the plaque-producing Streptococcus mutans OMZ-61 containing 1.5 g. of BBL beef extract, 5 g. of sodium chloride, 10 g. of dehydrated trypticase, 5 g. of sucrose and sufficient distilled water to give a total volume of 1000 ml. is adjusted to pH 7.0 and sterilized by membrane filtration. The medium is dispensed aseptically in 10-ml. aliquots into 150×16 mm. test tubes and stored at refrigeration temperature until used.
Two concentrations of the compound to be tested are prepared by dissolving 100 mg. of the compound in 1 ml. of distilled water with the aid of sufficient 0.1 N sodium hydroxide, 10% dimethylsulfoxide or 10% N,N-dimethylformamide and diluting the resulting solution to 10 ml. with distilled water. This 1.0% solution and a 1:10 dilution in distilled water (0.1%) are sterilized by membrane filtration before use.
A sterile piece of plaque-free natural tooth enamel or synthetic hydroxylapatite is suspended in each concentration of compound for two 1-minute periods, each followed by a 1-minute air drying period. Each piece is then suspended and agitated for 5 minutes in individual test tubes containing sterile distilled water (rinse). They are then suspended in 10 ml. of liquid beef extract medium to which has been added 0.3 ml. of a 24-hr. anaerobic culture of Streptococcus mutans. The tubes containing the "treated" hydroxylapatite and the Streptococcus mutans are then incubated anaerobically at 37° C. for 24 hours. The same process of two 1-minute soaks in the solution of compound, each followed by 1 minute of air drying and the final 5-minute rinse is repeated before once again suspending the hydroxylapatite in a fresh tube containing 10 ml. of beef extract medium and 0.3 ml. of inoculum. At the end of the second 24-hour period, each piece of hydroxylapatite is rinsed for 1 minute in 3 successive tubes of distilled water. These are then suspended for 1 minute in a solution of F, D & C Red No. 3 dye. This staining procedure is used in order to identify more easily the development of plaque after the 48-hour period of exposure to the plaque-producing organism. The staining period is followed by another 10-second rinse to remove excess dye. Any plaque formation stains a brilliant pink. […] Active compounds are tested at successively lower doses in order to determine the minimum effective concentration. On some occasions, the interference of plaque production is caused by the inhibition of growth of the organism in the culture medium because the compound has been leached from the hydroxylapatite to produce an antibacterial level in the medium. When this occurs, the compound is tested at lower concentrations until the growth of the organism in the surrounding medium is equal to that in the nonmedicated control culture. Plaque may or may not be formed at these lower concentrations.
Dental plaque-preventive effectiveness in the presence of sterile human saliva (50%) was determined for representative examples.

S. pyogen. C203 = assay: In vitro antibacterial activity, MIC (modified Autotiter method); type: cell-based, Streptococcus pyogenes; conditions: 18-20 hours at 37° C.
Method in brief: as §2

P. mirab. MGH-1 = assay: as above; type: cell-based, Proteus mirabilis; conditions: 18-20 hours at 37° C.
Method in brief: as §2

S. Aureus ATCC 6538 = assay: Effect of serum on bacteriostatic activity (serial tube dilution test); type: cell-based, Staphyloccocus aureus; conditions: for MIC: Staphylococcus aureus, ATCC6538
Procedure: as §1

[3] = Acute oral toxicity (ALD50); type: in vivo; conditions: mouse, in vivo, po, mice, suspension in 1% gum tragacanth; read-out: 7-Day ALD50
Procedure: (§3) The acute oral toxicity (ALD50) of several representative examples was determined as follows: Groups of 3 young adult male Swiss-Webster strain albino mice were fasted approximately 4 hours before medication and then medicated once orally by stomach tube.

[4] = tested on: young adult male Swiss-Webster strain albino mice; assay: Acute oral toxicity (ALD50); type: in vivo; conditions: suspension in 1% G.T.
Procedure: as §3

C. albicans 10231 = assay: In vitro antifungal activity, MIC (modified Autotiter method); type: cell-based, Candida albicans; conditions: 18-20 hours at 37° C.
Method in brief: as §2

C. albicans Wisc. = assay: as above; type: cell-based, Candida albicans; conditions: 18-20 hours at 37° C.
Method in brief: as §2

S. Aureus Smith = assay: In vitro antibacterial activity, MIC (modified Autotiter method); type: cell-based, Staphylococcus aureus; conditions: 18-20 hours at 37° C.
Method in brief: as §2

E. coli AB1932-1 = assay: as above; type: cell-based, Escherichia coli; conditions: 18-20 hours at 37° C.
Method in brief: as §2

E. coli 100/B22 = assay: as above; type: cell-based, Escherichia coli
Method in brief: as §2

E. coli Vogel = assay: as above; type: cell-based, Escherichia coli; conditions: 18-20 hours at 37° C.
Method in brief: as §2

T. menta. 9129 = assay: In vitro antifungal activity, MIC (modified Autotiter method); type: cell-based, Trichophyton mentagrophytes; conditions: 18-20 hours at 37° C.
Method in brief: as §2

[5] = 25 mg/kg (so in the source) oral

Structure (SMILES): CCCCCCCCNc1cc[n+](CCCCCCCCCC[n+]2ccc(NCCCCCCCC)cc2)cc1 [Example 9D, 1,10-bis-[4-(octylamino)-1-pyridinium]decane dibromide]
- Fold Increase in MIC E. Coli ATCC 8739 (E. Coli ATCC 8739; 40% vs 0% horse serum): 64 fold
- MIC (E. Coli ATCC 8739; 40% heat inactivated horse serum, read-out: MIC E. Coli ATCC 8739 40% Serum): 62.5 µg/mL
- MIC (E. Coli ATCC 8739; read-out: MIC E. Coli ATCC 8739 0% Serum): 1 µg/mL
- Virucidal activity against Herpes simplex type 2 virus [1]: active
- MIC K. pneum. 39645 (K. pneum. 39645): 3.9 µg/mL
- MIC Ps. aerug. MGH-2 (Ps. aerug. MGH-2): 3.9 µg/mL
- MIC A. niger 16404 (A. niger 16404): 1.95 µg/mL
- Dental Plaque Preventive Activity in 50% saliva Minimum Effective Conc. (%) [2]: Ca. 0.005%
- MIC S. pyogen. C203 (S. pyogen. C203): 0.5 µg/mL
- MIC P. mirab. MGH-1 (P. mirab. MGH-1): 3.9 µg/mL
- Fold Increase in MIC S. Aureus ATCC 6538 (S. Aureus ATCC 6538; 40% vs 0% horse serum): 16 fold
- MIC (S. Aureus ATCC 6538; 40% heat inactivated horse serum, read-out: MIC S. Aureus ATCC 6538 40% Serum): 7.8 µg/mL
- MIC (S. Aureus ATCC 6538; read-out: MIC S. Aureus ATCC 6538 0% Serum): 0.5 µg/mL
- LD50 at 168 h [3]: > 1000 mg/kg
- Mortality 7 Days [4, 5]: 0/3
- Mortality 24 Hrs [4, 5]: 0/3
- Mortality 7 Days ([4]; 250 mg/kg oral): 0/3
- Mortality 24 Hrs ([4]; 250 mg/kg oral): 0/3
- Mortality 7 Days ([4]; 500 mg/kg oral): 0/3
- Mortality 24 Hrs ([4]; 500 mg/kg oral): 0/3
- Mortality 7 Days ([4]; 1000 mg/kg oral): 0/3
- Mortality 24 Hrs ([4]; 1000 mg/kg oral): 0/3
- MIC C. albicans 10231 (C. albicans 10231): 1.0 µg/mL
- MIC C. albicans Wisc. (C. albicans Wisc.): 1.0 µg/mL
- MIC S. Aureus Smith (S. Aureus Smith): 0.5 µg/mL
- MIC E. coli AB1932-1 (E. coli AB1932-1): 1.0 µg/mL
- MIC E. coli 100/B22 (E. coli 100/B22; 18-20 hours at 37° C.): 1.95 µg/mL
- MIC E. coli Vogel (E. coli Vogel): 1.95 µg/mL
- MIC T. menta. 9129 (T. menta. 9129): 1.0 µg/mL

Structure (SMILES): CCCCC(CC)CNc1cc[n+](CCCCCCCC[n+]2ccc(NCC(CC)CCCC)cc2)cc1 (stereo not shown) [Example 56, 1,8-bis-[4-(2-ethylhexylamino)-1-pyridinium]octane dibromide]
- Virucidal activity against Herpes simplex type 2 virus [1]: active
- MIC (K. pneum. 39645; Klebsiella pneumoniae, 20 h, read-out: MIC K. pneum. 39645): 7.8 µg/mL
- MIC (Ps. aerug. MGH-2; Pseudomonas aeruginosa, 20 h, read-out: MIC Ps. aerug. MGH-2): 125 µg/mL
- MIC (A. niger 16404; Aspergillus niger, 16404, 20 h, read-out: MIC A. niger 16404): 15.6 µg/mL
- Dental Plaque Preventive Activity in 50% saliva Minimum Effective Conc. (%) [2]: 0.1%
- MIC (S. pyogen. C203; Streptococcus pyogenes, 20 h, read-out: MIC S. pyogen. C203): 0.16 µg/mL
- MIC (P. mirab. MGH-1; Proteus mirabilis, 20 h, read-out: MIC P. mirab. MGH-1): 125 µg/mL
- LD50 at 168 h [3]: > 1000 mg/kg
- Mortality 7 Days ([4]; 125 mg/kg oral): 0/3
- Mortality 24 Hrs ([4]; 125 mg/kg oral): 0/3
- Mortality 7 Days ([4]; 250 mg/kg oral): 0/3
- Mortality 24 Hrs ([4]; 250 mg/kg oral): 0/3
- Mortality 7 Days ([4]; 500 mg/kg oral): 0/3
- Mortality 24 Hrs ([4]; 500 mg/kg oral): 0/3
- Mortality 7 Days ([4]; 1000 mg/kg oral): 1/3
- Mortality 24 Hrs ([4]; 1000 mg/kg oral): 1/3
- MIC (C. albicans 10231; Candida albicans, 10231, 20 h, read-out: MIC C. albicans 10231): 3.9 µg/mL
- MIC (C. albicans Wisc.; Candida albicans, 20 h, read-out: MIC C. albicans Wisc.): 3.9 µg/mL
- MIC (S. Aureus Smith; Staphylococcus aureus, 20 h, read-out: MIC S. Aureus Smith): 0.31 µg/mL
- MIC (E. coli AB1932-1; Escherichia coli, AB19321, 20 h, read-out: MIC E. coli AB1932-1): 0.98 µg/mL
- MIC (E. coli 100/B22; Escherichia coli, 100/B22, 20 h, read-out: MIC E. coli 100/B22, 18-20 hours at 37° C.): 1.95 µg/mL
- MIC (E. coli Vogel; Escherichia coli, 20 h, read-out: MIC E. coli Vogel): 3.9 µg/mL
- MIC (T. menta. 9129; Trichophyton mentagrophytes, 20 h, read-out: MIC T. menta. 9129): 1.95 µg/mL
